Experimental findings from ChEMBL document CHEMBL1201862, “PubChem BioAssay data set” (2004) are described below.

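Values below derive from 48-hour exposures of cells grown in 96-well plates, with endpoints linearly interpolated between the two concentrations bracketing the appropriate inhibition level. GI50 = concentration required for 50% inhibition of growth.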 Activity calls are given as the source filed them. Rule as the data show it: active = GI50 up to about 1.1 µM and inactive = higher. Where a SMILES comes first, the peptide text is derived from it. [ ]: non-standard residue; d: D form. Ac5c = NC1(C(=O)O)CCCC1

Assay in all cases: NCI anticancer screen, dose series, 48 h
Assay [1] has as its system HOP-62.
For assay [2], the system named is HCT-15.
Assay [3] relates to NCI-H226.
For assay [4], the system named is U-251.
Assay [5] relates to UACC-62.
For assay [6], the system named is MOLT-4.
Assay [7] concerns NCI-H522.
The test system of assay [8] is EKVX.
Assay [9] has as its system SK-MEL-5.
Assay [10] relates to HOP-92.
Assay [11] has as its system UO-31.
The test system of assay [12] is HCC 2998.
The subject of assay [13] is SW-620.
In assay [14] the test system is MDA-MB-435.
The test system of assay [15] is M14.
Assay [16] concerns RPMI-8226.
Assay [17] concerns LOX IMVI.
The test system of assay [18] is Malme-3M.
For assay [19], the system named is BT-549.

Consider `CCCCc1ccc(C#CC#Cc2ccc(CCCC)s2)s1`, for which the GI50 in [1] is > 100 µM (inactive); in assay [2], greater than 100 µM; in assay [3], > 100 µM (inactive); in assay [4] it was > 100 µM (inactive); in [5], > 100 µM (inactive); in [6] it was > 100 µM (inactive). The GI50 in assay [7], in assay [8], in assay [9], in [10], in assay [11] and in assay [12] was > 100 µM (inactive) throughout. The GI50 in [13], in assay [14], in [15] and in assay [16] was > 100 µM (inactive) each time.
With `OC(c1cc2ccccc2o1)c1cc2ccccc2s1` (centres undefined), the GI50 is > 10 µM (inactive) in assay [1]; greater than 10 µM in assay [2]; > 10 µM (inactive) in assay [3]; > 10 µM (inactive) in assay [4]; > 10 µM (inactive) in assay [5]; > 10 µM (inactive) in assay [6]. The GI50 is > 10 µM (inactive) in assay [7]; 7.23 µM (inactive) in assay [8]; > 10 µM (inactive) in [17]; > 10 µM (inactive) in [9]; > 10 µM (inactive) in assay [10]; > 10 µM (inactive) in [11]. Besides, the GI50 in [12] was > 10 µM (inactive); in [13], > 10 µM (inactive); in [14] it was 3.78 µM (inactive); in [15], > 10 µM (inactive); in assay [16], > 10 µM (inactive).
Turning to `Clc1cccc(C2SCc3nc4ccccc4n32)c1` (centres undefined), the GI50 in assay [1] was 20 µM (inactive); in assay [2] it was 16.8 µM; in [3] it was 12.8 µM (inactive); in [4] it was 16 µM (inactive); in [5], 13.8 µM (inactive); in [6], 23.1 µM (inactive). Further, the GI50 in [18] is 22 µM (inactive); in assay [7], 10.4 µM (inactive); in assay [8], 17.5 µM (inactive); in assay [17], 15.2 µM (inactive); in assay [10] it was 11.5 µM (inactive); in [13], 32.9 µM (inactive). Moreover, the GI50 is 19.7 µM (inactive) in assay [15] and 14.2 µM (inactive) in [16].
Turning to `C/C(=C\COP(=O)(O)OP(=O)(O)O)CC/C=C(\C)CNc1ccc([N+](=O)[O-])cc1`, the GI50 is > 100 µM (inactive) in assay [1]; greater than 100 µM in assay [2]; > 100 µM (inactive) in [3]; > 100 µM (inactive) in assay [4]; > 100 µM (inactive) in assay [5]; > 100 µM (inactive) in assay [6]. Further, the GI50 in assay [18], in [7], in assay [8], in assay [17], in assay [9] and in [10] was > 100 µM (inactive) each time. For the same compound, the GI50 in [11], in assay [13], in assay [14], in [15] and in [16] was > 100 µM (inactive) throughout.
With `[N-]=[N+]=Nc1nnc(CCCCc2nnc(N=[N+]=[N-])o2)o1`, the GI50 is > 100 µM (inactive) in assay [1]; greater than 100 µM in assay [2]; > 100 µM (inactive) in assay [3]; > 100 µM (inactive) in [4]; > 100 µM (inactive) in assay [5]; > 100 µM (inactive) in assay [6]. For the same compound, the GI50 in [18], in [7], in assay [8], in assay [17], in [9] and in [10] was > 100 µM (inactive) in each case. The GI50 in assay [11], in assay [12], in [13] and in [15] was > 100 µM (inactive) in each case.
As for `O=C1NC(c2ccc(O)cc2)C2CCC1C2` (centres undefined), the GI50 in assay [1], in assay [3], in assay [4], in assay [5], in [6] and in assay [18] was > 100 µM (inactive) throughout. In addition, the GI50 in assay [7], in [8], in assay [9], in assay [10], in assay [11] and in assay [12] was > 100 µM (inactive) each time. Also, the GI50 in assay [13], in [15] and in [16] was > 100 µM (inactive) each time.
On to `COC(=O)/C(=N/NC(C)(C)C)C(C(=O)C=C(C)C)C(=O)C(=O)Nc1ccc(Cl)cc1C` (centres undefined), for which the GI50 in assay [1] was > 100 µM (inactive); in assay [2] it was greater than 100 µM; in assay [3], 99.3 µM (inactive); in [4], > 100 µM (inactive); in assay [5], > 100 µM (inactive); in assay [6] it was > 100 µM (inactive). In addition, the GI50 in assay [18], in [7], in [8], in [9], in [11] and in [12] was > 100 µM (inactive) throughout. The GI50 in assay [13], in assay [15] and in assay [16] was > 100 µM (inactive) in each case.
For the compound `CN(CCO)CCCC1COc2ccccc2O1` (centres undefined), the GI50 was > 100 µM (inactive) in assay [1]; greater than 100 µM in assay [2]; > 100 µM (inactive) in assay [3]; > 100 µM (inactive) in [4]; > 100 µM (inactive) in assay [5]; > 100 µM (inactive) in [6]. In addition, the GI50 in assay [18] is > 100 µM (inactive); in [7], > 100 µM (inactive); in [8], 73.3 µM (inactive); in assay [9] it was > 100 µM (inactive); in assay [10], > 100 µM (inactive); in [11] it was > 100 µM (inactive). The GI50 in assay [19], in [12], in assay [13] and in assay [15] was > 100 µM (inactive) throughout.
With `O=C1CCCC1C(O)(C(F)(F)F)C(F)(F)F` (centres undefined), the GI50 was > 100 µM (inactive) in assay [1]; greater than 100 µM in assay [2]; > 100 µM (inactive) in [3]; > 100 µM (inactive) in assay [4]; > 100 µM (inactive) in [5]; > 100 µM (inactive) in assay [6]. For the same compound, the GI50 in [18], in [7], in [8], in assay [17], in assay [9] and in assay [10] was > 100 µM (inactive) each time. Further, the GI50 in assay [11], in assay [12], in assay [13], in assay [14], in assay [15] and in assay [16] was > 100 µM (inactive) throughout.
For `O/N=N\c1nc(-c2ccccn2)nc2ccccc12`, the GI50 was 1.98 µM (inactive) in [1]; 1.53 µM in [2]; 12.7 µM (inactive) in assay [3]; 17.5 µM (inactive) in [4]; 7.18 µM (inactive) in [5]; 0.373 µM (active) in assay [6]. The GI50 in assay [18] is 1.24 µM (inactive); in assay [7], 1.89 µM (inactive); in assay [8], 18.2 µM (inactive); in [9], 2.77 µM (inactive); in [11], 18.7 µM (inactive); in assay [19], 20.8 µM (inactive). The values for the GI50 in assay [12], in assay [13] and in assay [15] were 9.71 µM (inactive), 5.35 µM (inactive) and 4.09 µM (inactive), respectively.
On to `COc1c(Br)cc(/C=C(\C#N)c2cccnc2)cc1Br`, for which the GI50 in assay [1] was 54.8 µM (inactive); in assay [2], 33.5 µM; in assay [3] it was 33.7 µM (inactive); in [4] it was 36.3 µM (inactive); in assay [5], > 100 µM (inactive); in assay [6], 49.1 µM (inactive). In addition, the GI50 in assay [18] is > 100 µM (inactive); in [7], 42.1 µM (inactive); in assay [8] it was 4.31 µM (inactive); in assay [9] it was 43.7 µM (inactive); in assay [10] it was 23.1 µM (inactive); in assay [11], > 100 µM (inactive). Besides, the GI50 in assay [19] was 30.5 µM (inactive); in assay [12], 48 µM (inactive); in [13] it was 38.7 µM (inactive); in [15], 43.4 µM (inactive); in assay [16], > 100 µM (inactive).
As for `COC(CCC[N+](C)(C)C)CC[N+](C)(C)C` (centres undefined), the GI50 is > 100 µM (inactive) in assay [1]; greater than 100 µM in [2]; > 100 µM (inactive) in assay [3]; > 100 µM (inactive) in assay [4]; > 100 µM (inactive) in assay [5]; > 100 µM (inactive) in [6]. The GI50 in [18], in assay [7], in assay [8], in [9], in [11] and in assay [19] was > 100 µM (inactive) each time. The GI50 in assay [12], in assay [13], in [15] and in assay [16] was > 100 µM (inactive) each time.
`COC(=O)C1(NC(=O)C(C)NC(=O)C(CCCCN)NC(=O)C(CC(C)C)NC(C)=O)CCCC1` (centres undefined) (Ac-LKA[Ac5c]-OMe; configuration not given here): the GI50 is > 100 µM (inactive) in assay [1]; greater than 100 µM in [2]; > 100 µM (inactive) in assay [6]; > 100 µM (inactive) in assay [7]; > 100 µM (inactive) in [8]; > 100 µM (inactive) in assay [9]. Also, the GI50 in [11], in [12], in [13], in [14], in assay [15] and in assay [16] was > 100 µM (inactive) in each case.
